Experimental data reported in patent publication US20250090820A1, “LOCALIZED DRUG DELIVERY TO PREVENT VASCULAR RESTENOSIS” (Ohio State Innovation Foundation, priority 2022, published 2025).

Test: Release of model compounds from sintered electrospun PCL fiber capsules
Type: physicochemical
Settings: for ranking of release of model compounds: controlled by molecular weight and available porosity
From the text: Electrospinning has been used widely for drug delivery due to its versatility and ease of modification of fiber properties. However, total drug loading and release is typically limited by the inherent surface area. Instead a sintering of electrospun fiber to create injectable capsules favoring controlled delivery of low molecular weight compounds was used. As electrospun, the fully resorbable, biocompatible polymer polycaprolactone (PCL) retains its morphology out to 1,042 days of in vitro exposure, illustrating its potential for extended performance. Sintering decreases the pore size by 10- and 28-fold following 56 and 57° C. exposures, respectively. After the 58 and 59° C. exposures, these PCL capsules lose all apparent surface porosity but entrapped pores are observed in the 58° C. cross-section. […] The model drug adsorption on the available surface area (57 versus 56° C.) and entrapped porosity (59 versus 58° C.) could have also attributed to the observed ranking of release rates.
FIGS. 5A-5H show images of microstructural transformations at different temperatures (56° C. to 59° C.). […] Little difference between 56° C. and 57° C. sintering and unsintered fiber˜100% release. […] At 58° C. and 59° C. release is flipped: faster release at lower porosity. RhB is a relatively small molecule. Intermittent adsorption to surface of remaining porosity greatly slows release. […] No condition achieves˜100% release out to 12 days. […] At 58° C. and 59° C. release are still flipped but not as dramatic: faster release at lower porosity. Intermittent adsorption to surface of remaining porosity continues to slow release but increased molecular weight decreases net differences in diffusion. […] Much larger molecule needs fully open porosity for any release to occur. […] Diffusion through dense PCL is zero. […] FIGS. 11A-11B show relatively little porosity remains. This makes a substantial difference in diffusion and surface controlled release. Sequestration within the wall. FIGS. 12A-12D and 13A-13F show controlled salt confinement for controlled porosity using HEPES salt. […] Extraction was performed using deionized water at 37° C. for 24 hours plus gentle shaking. In most cases extraction was nearly complete. It is likely that Na^+ was retained and has measurable effects on mechanical properties.

percent RB release of 200 μg (any sintering condition, out to 12 days) [%]	RB release profile (capsules sintered at 58° C. and 59° C.)	ranking of release of model compounds	percent RhB release of 200 μg (56° C. and 57° C. sintering and unsintered fiber) [%]	RhB release profile (capsules sintered at 58° C.)	Compound	Diffusion through dense PCL (dense PCL wall)	BSA-FITC release profile (release of 200 μg versus time, needs fully open porosity)
< 100	linear release out to 12 days	RhB>RB>>BSA-FITC			O=C1OC2(c3cc(I)c(O)c(I)c3Oc3c2cc(I)c(O)c3I)c2c(Cl)c(Cl)c(Cl)c(Cl)c21 [RB, Rose Bengal]		
		RhB>RB>>BSA-FITC	~100	linear release out to 12 days	CCN(CC)c1ccc2c(-c3ccccc3C(=O)O)c3ccc(=[N+](CC)CC)cc-3oc2c1.[Cl-] [RhB, Rhodamine B]		

Compound	percent RB release of 200 μg (any sintering condition, out to 12 days) [%]	RB release profile (capsules sintered at 58° C. and 59° C.)	ranking of release of model compounds	percent RhB release of 200 μg (56° C. and 57° C. sintering and unsintered fiber) [%]	RhB release profile (capsules sintered at 58° C.)	Diffusion through dense PCL (dense PCL wall)	BSA-FITC release profile (release of 200 μg versus time, needs fully open porosity)
albumin-fluorescein isothiocyanate conjugate from bovine serum [BSA-FITC]			RhB>RB>>BSA-FITC			zero	Release plateaus quickly
